Data published in patent publication US12172995B2, “Substituted indole and indazole compounds” (BRISTOL-MYERS SQUIBB COMPANY, priority 2018, dated 2024).

What was measured:
Type in all cases: cell-based
human TLR8 = target: T1, human TLR8 (Homo sapiens, UniProt Q9NR97); assay: TLR8 inhibition reporter assay (HEK-Blue SEAP); details: HEK-Blue cells overexpressing human TLR8, stimulated with R848 15.9 μM, 22 hour incubation
T1 construct: host or cells: HEK-Blue cells
T1 sequence (Q9NR97 27-1041): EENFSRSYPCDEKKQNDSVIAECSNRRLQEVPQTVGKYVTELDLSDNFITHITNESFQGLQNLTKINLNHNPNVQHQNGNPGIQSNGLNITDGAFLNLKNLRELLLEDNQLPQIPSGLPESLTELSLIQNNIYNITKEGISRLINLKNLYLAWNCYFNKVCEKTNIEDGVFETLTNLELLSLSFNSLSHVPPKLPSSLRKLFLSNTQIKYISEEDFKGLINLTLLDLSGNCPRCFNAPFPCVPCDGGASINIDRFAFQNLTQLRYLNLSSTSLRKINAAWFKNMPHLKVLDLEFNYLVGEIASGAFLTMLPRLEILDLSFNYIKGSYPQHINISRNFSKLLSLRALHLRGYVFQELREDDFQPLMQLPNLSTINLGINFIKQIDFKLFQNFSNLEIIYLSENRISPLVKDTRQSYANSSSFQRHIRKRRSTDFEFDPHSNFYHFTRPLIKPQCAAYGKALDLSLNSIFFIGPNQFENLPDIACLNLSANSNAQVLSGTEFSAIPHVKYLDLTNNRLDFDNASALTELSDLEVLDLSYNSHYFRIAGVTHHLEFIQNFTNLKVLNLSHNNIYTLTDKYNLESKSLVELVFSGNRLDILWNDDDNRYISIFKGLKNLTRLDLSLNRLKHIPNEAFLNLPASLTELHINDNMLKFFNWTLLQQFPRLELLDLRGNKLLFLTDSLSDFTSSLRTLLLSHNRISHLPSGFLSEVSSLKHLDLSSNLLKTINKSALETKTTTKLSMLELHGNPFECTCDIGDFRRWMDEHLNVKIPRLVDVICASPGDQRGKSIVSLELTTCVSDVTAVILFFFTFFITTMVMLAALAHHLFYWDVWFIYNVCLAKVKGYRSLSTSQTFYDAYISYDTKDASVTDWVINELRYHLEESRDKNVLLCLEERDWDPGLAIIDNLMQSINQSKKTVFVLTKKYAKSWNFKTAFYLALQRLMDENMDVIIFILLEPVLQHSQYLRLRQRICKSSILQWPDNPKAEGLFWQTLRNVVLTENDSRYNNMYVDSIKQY
Summary of the method: (§1)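 Reporter HEK-Blue lines; cpd 0.05 nM–50 μM, 30 min preincubation RT; agonist: TLR7 gardiquimod 7.5 μM, TLR8 R848 15.9 μM, TLR9 ODN2006 5 nM; 22 h 37 °C; SEAP detected colorimetrically; % inhib vs known inhibitor.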

human TLR9 = target: T2, human TLR9 (Homo sapiens, UniProt Q9NR96); assay: TLR9 inhibition reporter assay (HEK-Blue SEAP); details: HEK-Blue cells overexpressing human TLR9, stimulated with ODN2006 5 nM, 22 hour incubation
T2 construct: host or cells: HEK-Blue cells
T2 sequence (Q9NR96 26-1032): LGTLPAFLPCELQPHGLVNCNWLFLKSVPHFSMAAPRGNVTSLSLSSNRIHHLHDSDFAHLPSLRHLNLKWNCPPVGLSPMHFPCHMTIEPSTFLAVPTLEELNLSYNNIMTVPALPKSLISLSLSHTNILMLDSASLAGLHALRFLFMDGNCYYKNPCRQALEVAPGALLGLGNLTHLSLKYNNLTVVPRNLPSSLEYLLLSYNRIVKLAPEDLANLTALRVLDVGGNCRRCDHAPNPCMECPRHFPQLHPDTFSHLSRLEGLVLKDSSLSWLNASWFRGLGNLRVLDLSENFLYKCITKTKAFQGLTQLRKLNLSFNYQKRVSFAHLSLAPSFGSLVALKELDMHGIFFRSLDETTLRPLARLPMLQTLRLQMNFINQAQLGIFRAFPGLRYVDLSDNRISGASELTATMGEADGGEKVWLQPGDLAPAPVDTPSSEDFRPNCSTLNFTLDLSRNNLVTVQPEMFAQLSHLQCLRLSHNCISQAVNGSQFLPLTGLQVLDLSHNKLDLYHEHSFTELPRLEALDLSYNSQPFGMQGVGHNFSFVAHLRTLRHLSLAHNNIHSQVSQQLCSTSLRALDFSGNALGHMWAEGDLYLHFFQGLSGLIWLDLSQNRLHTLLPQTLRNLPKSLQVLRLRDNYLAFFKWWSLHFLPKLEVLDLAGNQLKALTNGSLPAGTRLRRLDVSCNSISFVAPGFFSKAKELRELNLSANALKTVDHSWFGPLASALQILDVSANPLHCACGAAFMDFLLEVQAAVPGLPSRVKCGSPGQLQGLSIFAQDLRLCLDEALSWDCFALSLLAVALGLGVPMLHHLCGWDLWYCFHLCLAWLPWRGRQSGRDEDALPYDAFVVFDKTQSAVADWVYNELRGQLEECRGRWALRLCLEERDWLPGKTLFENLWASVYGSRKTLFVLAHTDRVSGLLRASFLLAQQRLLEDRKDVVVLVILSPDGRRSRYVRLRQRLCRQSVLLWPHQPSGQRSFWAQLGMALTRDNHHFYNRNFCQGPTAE
Summary of the method: as §1

human TLR7 = target: T3, human TLR7 (Homo sapiens, UniProt Q9NYK1); assay: TLR7 inhibition reporter assay (HEK-Blue SEAP); details: HEK-Blue cells overexpressing human TLR7, stimulated with gardiquimod 7.5 μM, 22 hour incubation
T3 construct: host or cells: HEK-Blue cells
T3 sequence (Q9NYK1 27-1049): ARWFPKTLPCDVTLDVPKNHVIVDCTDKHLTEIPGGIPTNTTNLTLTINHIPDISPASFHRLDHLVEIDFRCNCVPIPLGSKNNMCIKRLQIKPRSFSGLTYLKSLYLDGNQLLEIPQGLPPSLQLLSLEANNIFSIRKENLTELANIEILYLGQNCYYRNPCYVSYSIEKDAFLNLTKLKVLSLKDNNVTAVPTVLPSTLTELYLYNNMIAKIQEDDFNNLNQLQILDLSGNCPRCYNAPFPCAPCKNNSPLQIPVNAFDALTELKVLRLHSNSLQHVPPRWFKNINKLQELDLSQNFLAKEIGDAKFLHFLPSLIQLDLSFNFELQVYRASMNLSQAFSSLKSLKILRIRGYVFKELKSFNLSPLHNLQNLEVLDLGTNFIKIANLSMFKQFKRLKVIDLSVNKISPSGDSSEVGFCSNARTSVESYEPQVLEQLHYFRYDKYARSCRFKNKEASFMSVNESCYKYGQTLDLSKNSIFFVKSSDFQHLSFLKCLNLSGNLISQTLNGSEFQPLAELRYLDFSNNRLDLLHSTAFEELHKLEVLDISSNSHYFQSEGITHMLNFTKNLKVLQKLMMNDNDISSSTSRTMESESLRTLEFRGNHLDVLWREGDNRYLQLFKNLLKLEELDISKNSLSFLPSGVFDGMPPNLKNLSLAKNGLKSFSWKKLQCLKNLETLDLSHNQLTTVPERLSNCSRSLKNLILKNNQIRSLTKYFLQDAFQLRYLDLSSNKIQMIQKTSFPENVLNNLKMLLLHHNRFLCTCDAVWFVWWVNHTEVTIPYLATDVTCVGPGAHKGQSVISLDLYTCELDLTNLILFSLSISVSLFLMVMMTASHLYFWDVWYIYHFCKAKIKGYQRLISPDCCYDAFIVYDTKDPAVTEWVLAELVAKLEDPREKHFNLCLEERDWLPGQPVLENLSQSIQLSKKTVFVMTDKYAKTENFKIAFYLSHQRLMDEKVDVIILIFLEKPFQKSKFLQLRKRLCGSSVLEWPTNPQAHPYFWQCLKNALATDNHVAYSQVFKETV
Summary of the method: as §1

| IC50 (human TLR8) [nM] | IC50 (human TLR9) [nM] | IC50 (human TLR7) [nM] | SMILES |
| --- | --- | --- | --- |
| 0.2 | 17500 | 7.5 | CCc1cc2c(C3CCC(NCCS(C)(=O)=O)CC3)n[nH]c2cc1-c1cc(C)c2ncnn2c1 (single isomer, unassigned) [Example 100, 4-(5-ethyl-6-(8-methyl-[1,2,4]triazolo[1,5-a]pyridin-6-yl)-1H-indazol-3-yl)-N-(2-(methylsulfonyl)ethyl)cyclohexan-1-amine] |
| 19.6 | 287 | 4.7 | Cc1cc(-c2cc(C)c3ncnn3c2)cc2[nH]nc(C3CCCNC3)c12 (stereo not drawn) [Example 51, 8-methyl-6-(4-methyl-3-(piperidin-3-yl)-1H-indazol-6-yl)-[1,2,4]triazolo[1,5-a]pyridine] |
| 0.2 | 12200 | 5.6 | CCc1cc2c(C3CCN(CC(C)(C)O)CC3)n[nH]c2cc1-c1cc(C)c2ncnn2c1 [Example 101, 1-(4-(5-ethyl-6-(8-methyl-[1,2,4]triazolo[1,5-a]pyridin-6-yl)-1H-indazol-3-yl)piperidin-1-yl)-2-methylpropan-2-ol] |
| 4.9 | 1820 | 11.3 | Cc1cc(-c2cc(C)c3ncnn3c2)cc2[nH]nc(OC3CCC(NCCS(C)(=O)=O)CC3)c12 (stereo not drawn) [Example 187, 4-((4-methyl-6-(8-methyl-[1,2,4]triazolo[1,5-a]pyridin-6-yl)-1H-indazol-3-yl)oxy)-N-(2-(methylsulfonyl)ethyl)cyclohexan-1-amine] |
| 0.7 | 8540 | 1.5 | Cc1cc(-c2cc3[nH]nc(C4CCC(N5CC(OC(C)C)C5)CC4)c3cc2C(C)C)cn2ncnc12 (single isomer, unassigned) [Example 162, 6-(3-(4-(3-isopropoxyazetidin-1-yl)cyclohexyl)-5-isopropyl-1H-indazol-6-yl)-8-methyl-[1,2,4]triazolo[1,5-a]pyridine] |
| 1.7 | 4940 | 12.2 | Cc1cc2c(C3CCCN(C(=O)CN(C)C)C3)n[nH]c2cc1-c1cc(C)c2ncnn2c1 (stereo not drawn) [Example 56, 2-(dimethylamino)-1-(3-(5-methyl-6-(8-methyl-[1,2,4]triazolo[1,5-a]pyridin-6-yl)-1H-indazol-3-yl)piperidin-1-yl)ethan-1-one] |
| 0.3 | 20900 | 1.5 | Cc1cc(-c2cc3[nH]nc(C4CCN(CC(=O)N(C)C)CC4)c3cc2C(C)C)cn2ncnc12 [Example 112, 2-(4-(5-isopropyl-6-(8-methyl-[1,2,4]triazolo[1,5-a]pyridin-6-yl)-1H-indazol-3-yl)piperidin-1-yl)-N,N-dimethylacetamide] |
| 0.6 | 7450 | 1.1 | Cc1cc(-c2cc3[nH]nc(C4CCC(N5CC(C)(O)C5)CC4)c3cc2C(C)C)cn2ncnc12 (stereo not drawn) [Example 153, 1-(4-(5-isopropyl-6-(8-methyl-[1,2,4]triazolo[1,5-a]pyridin-6-yl)-1H-indazol-3-yl)cyclohexyl)-3-methylazetidin-3-01] |
| 0.2 | 39800 | 7.2 | CCc1cc2c(C3CCN(CCC#N)CC3)n[nH]c2cc1-c1cc(C)c2ncnn2c1 [Example 106, 3-(4-(5-ethyl-6-(8-methyl-[1,2,4]triazolo[1,5-a]pyridin-6-yl)-1H-indazol-3-yl)piperidin-1-yl)propanenitrile] |
| 2.1 | 1040 | 124 | Cc1cc2c(C3CCCNC3)n[nH]c2cc1-c1cc(C)c(=O)n(C)c1 (stereo not drawn) [Example 46, 1,3-dimethyl-5-(5-methyl-3-(piperidin-3-yl)-1H-indazol-6-yl)pyridin-2(1H)-one] |
| 0.1 | ≥ 50000 | 6 | Cc1cc2c(C3CCC(NC(C)C)CC3)n[nH]c2cc1-c1cc(C)c2ncnn2c1 (single isomer, unassigned) [Example 38, N-isopropyl-4-(5-methyl-6-(8-methyl-[1,2,4]triazolo[1,5-a]pyridin-6-yl)-1H-indazol-3-yl)cyclohexan-1-amine] |
| 3.3 | 1370 | 9.8 | Cc1cc2c(C3CCN(CC#N)CC3)n[nH]c2cc1-c1cc(C)c2ncnn2c1 [Example 71, 2-(4-(5-methyl-6-(8-methyl-[1,2,4]triazolo[1,5-a]pyridin-6-yl)-1H-indazol-3-yl)piperidin-1-yl)acetonitrile] |
| 0.4 | 6740 | 15.3 | Cc1cc2c(C3CCC(NCCS(C)(=O)=O)CC3)n[nH]c2cc1-c1cc(C)c2ncnn2c1 (stereo not drawn) [Example 30, 4-(5-methyl-6-(8-methyl-[1,2,4]triazolo[1,5-a]pyridin-6-yl)-1H-indazol-3-yl)-N-(2-(methylsulfonyl)ethyl) cyclohexan-1-amine] |
| 1.2 | 5830 | 44.2 | Cc1cc2c(C3CCCN(CC(=O)N(C)C)C3)n[nH]c2cc1-c1cc(C)c2ncnn2c1 (stereo not drawn) [Example 53, N,N-dimethyl-2-(3-(5-methyl-6-(8-methyl-[1,2,4]triazolo[1,5-a]pyridin-6-yl)-1H-indazol-3-yl)piperidin-1-yl)acetamide] |
